# Experimental data: patent US7531544B2, “Xanthine phosphodiesterase V inhibitors” (Schering Corporation, priority 2000, dated 2009)
# Biological target: PDE V (Homo sapiens, UniProt O76074)
# Experiment: PDE V enzyme inhibition (PDE V IC50)
# Format: biochemical
row,Structure (SMILES),IC50
1,COc1ccc(Cn2c(NC3CCCC3CO)nc3c2c(=O)n(C)c(=O)n3C)cc1 (centres unmarked) [Compound 13],15 to 100 nM
2,COc1ccc(Cn2c(N[C@@H]3CCc4ccccc43)nc3c2c(=O)n(C)c(=O)n3C)cc1 [Compound 95],5 to 10 nM
